Assay results taken from ChEMBL document CHEMBL3885861, “Open TG-GATES”.

Species on record: Rattus norvegicus
Experiment: Open TG-GATES - Regimen: Single
Format: toxicity, organism-based, Sprague-Dawley
Set-up: regimen Single, gender Male, age 6 weeks
Details: in vivo, po, 15 mg/kg, route gavage, dose level Low; for APTT / Bas / Eos / Fbg / Hb / Ht / Lym / MCH / MCHC / MCV / Mono / Neu / PT / Plat / RBC / Ret / WBC: tissue Blood; for KIDNEY_L / KIDNEY_R / KIDNEY_TOTAL: tissue Kidney; for LIVER: tissue Liver; for A/G / ALP / ALT / AST / BUN / CRE / Ca / Cl / DBIL / GLC / IP / K / LDH / Na / PL / RALB / TBIL / TC / TG / TP / gamma-GTP: tissue Plasma

## CC1=C(CC(=O)O)c2cc(F)ccc2/C1=C\c1ccc([S+](C)[O-])cc1 (configuration not stated)
3 h
  TERMINAL_BW: 200.6 g
  APTT: 22.7 s
  Bas: 0%
  Eos: 1%
  Fbg: 290.6 mg/dL
  Hb: 13.4 g/dL
  Ht: 40.8%
  Lym: 74.8%
  MCH: 21.4 pg
  MCHC: 32.8%
  MCV: 65.3 fL
  Mono: 3%
  Neu: 21%
  PT: 14 s
  Plat: 130.1 x10_4/uL
  RBC: 625.6 x10_4/ul
  Ret: 8.8%
  WBC: 78.5 x10_2/uL
  KIDNEY_L: 1 g
  KIDNEY_R: 0.9 g
  KIDNEY_TOTAL: 1.9 g
  LIVER: 9.3 g
  A/G: 0.9
  ALP: 1384.2 IU/L
  ALT: 40.4 IU/L
  AST: 69.6 IU/L
  BUN: 11 mg/dL
  CRE: 0.2 mg/dL
  Ca: 10.9 mg/dL
  Cl: 105 meq/L
  DBIL: 0.01 mg/dL
  GLC: 173.2 mg/dL
  IP: 8.4 mg/dL
  K: 4 meq/L
  LDH: 66.8 IU/L
  Na: 140.8 meq/L
  PL: 140.6 mg/dL
  RALB: 2.6 g/dL
  TBIL: 0.036 mg/dL
  TC: 71.2 mg/dL
  TG: 65.6 mg/dL
  TP: 5.3 g/dL
  gamma-GTP: 1 IU/L
6 h
  TERMINAL_BW: 201 g
  APTT: 16.5 s
  Bas: 0%
  Eos: 1%
  Fbg: 279.2 mg/dL
  Hb: 13.5 g/dL
  Ht: 41.4%
  Lym: 74%
  MCH: 20.8 pg
  MCHC: 32.6%
  MCV: 63.7 fL
  Mono: 2.4%
  Neu: 22.4%
  PT: 14.1 s
  Plat: 115.6 x10_4/uL
  RBC: 650.4 x10_4/ul
  Ret: 8.1%
  WBC: 70.2 x10_2/uL
  KIDNEY_L: 0.9 g
  KIDNEY_R: 0.9 g
  KIDNEY_TOTAL: 1.7 g
  LIVER: 8.2 g
  A/G: 1
  ALP: 1365.6 IU/L
  ALT: 41.4 IU/L
  AST: 72.4 IU/L
  BUN: 9 mg/dL
  CRE: 0.2 mg/dL
  Ca: 10.8 mg/dL
  Cl: 106.8 meq/L
  DBIL: 0.006 mg/dL
  GLC: 172.8 mg/dL
  IP: 9.3 mg/dL
  K: 4.3 meq/L
  LDH: 73.2 IU/L
  Na: 141.4 meq/L
  PL: 137.6 mg/dL
  RALB: 2.5 g/dL
  TBIL: 0.03 mg/dL
  TC: 78.6 mg/dL
  TG: 40 mg/dL
  TP: 5.2 g/dL
  gamma-GTP: 1.4 IU/L
9 h
  TERMINAL_BW: 198.6 g
  APTT: 16.9 s
  Bas: 0%
  Eos: 0.8%
  Fbg: 285.6 mg/dL
  Hb: 13.2 g/dL
  Ht: 40.7%
  Lym: 81.4%
  MCH: 21 pg
  MCHC: 32.4%
  MCV: 64.8 fL
  Mono: 2%
  Neu: 15.2%
  PT: 14.2 s
  Plat: 128.1 x10_4/uL
  RBC: 627.6 x10_4/ul
  Ret: 8.8%
  WBC: 72.2 x10_2/uL
  KIDNEY_L: 0.9 g
  KIDNEY_R: 0.9 g
  KIDNEY_TOTAL: 1.8 g
  LIVER: 7.7 g
  A/G: 0.9
  ALP: 1238.2 IU/L
  ALT: 43.4 IU/L
  AST: 74.4 IU/L
  BUN: 10.6 mg/dL
  CRE: 0.2 mg/dL
  Ca: 10.7 mg/dL
  Cl: 108 meq/L
  DBIL: 0.008 mg/dL
  GLC: 173.6 mg/dL
  IP: 9.9 mg/dL
  K: 4.1 meq/L
  LDH: 65.2 IU/L
  Na: 142.2 meq/L
  PL: 135.4 mg/dL
  RALB: 2.5 g/dL
  TBIL: 0.042 mg/dL
  TC: 76.2 mg/dL
  TG: 37.6 mg/dL
  TP: 5.2 g/dL
  gamma-GTP: 1 IU/L
24 h
  TERMINAL_BW: 215 g
  APTT: 22.5 s
  Bas: 0%
  Eos: 1%
  Fbg: 310.4 mg/dL
  Hb: 14 g/dL
  Ht: 43.7%
  Lym: 77.4%
  MCH: 21 pg
  MCHC: 32%
  MCV: 65.8 fL
  Mono: 2.2%
  Neu: 19%
  PT: 13.3 s
  Plat: 125.4 x10_4/uL
  RBC: 665.4 x10_4/ul
  Ret: 7.7%
  WBC: 81.5 x10_2/uL
  KIDNEY_L: 0.9 g
  KIDNEY_R: 0.9 g
  KIDNEY_TOTAL: 1.8 g
  LIVER: 10.4 g
  A/G: 0.9
  ALP: 1898.6 IU/L
  ALT: 48 IU/L
  AST: 70.2 IU/L
  BUN: 15.4 mg/dL
  CRE: 0.2 mg/dL
  Ca: 11.2 mg/dL
  Cl: 104.6 meq/L
  DBIL: 0.01 mg/dL
  GLC: 189.6 mg/dL
  IP: 7.4 mg/dL
  K: 4.2 meq/L
  LDH: 90.8 IU/L
  Na: 141 meq/L
  PL: 176.4 mg/dL
  RALB: 2.7 g/dL
  TBIL: 0.014 mg/dL
  TC: 95 mg/dL
  TG: 134.8 mg/dL
  TP: 5.7 g/dL
  gamma-GTP: 1 IU/L
